Patent publication US6225321A (priority 1997, dated 2001)

Assay: Half-life / conversion of dinalbuphine sebacoyl ester in rat blood
Assay type: in vitro ADME
Conditions: for Elimination half-life: n = 3, mean ± S.E.
Method: (a) Dinalbuphine sebacoyl ester(SDN) was dissolved in acetonitrile, the concentration was 7.75 mg/ml.
(b) […] of whole blood was collected from rats given dinalbuphine sebacoyl ester, and anticoagulant was added.

O=C(CCCCCCCCC(=O)Oc1ccc2c3c1O[C@H]1[C@@H](O)CC[C@@]4(O)[C@@H](C2)N(CC2CCC2)CC[C@]314)Oc1ccc2c3c1O[C@H]1[C@@H](O)CC[C@@]4(O)[C@@H](C2)N(CC2CCC2)CC[C@]314 [sebacoyl dinalbuphine ester]
Elimination half-life (rat plasma): 2.8 min
Elimination half-life (rat red blood cell): 2.3 ± 0.6 min
Elimination half-life (rat whole blood): 2.2 ± 0.5 min
converted time of 90% into Nalbuphine (rats): 10 min
half life (rats, HPLC): 2.8 min
